Key:
[1] = test system: Toxoplasma gondii; experiment: growth inhibition of T. gondii in L929 host cells ([3H]-uracil incorporation); type: cell-based; conditions: Toxoplasma gondii, L929 host cells; for inhibition at 0.05 µg/mL: 0.05 μg/ml; for inhibition at 0.5 µg/mL: 0.5 μg/ml; for inhibition at 0.5 µg/mL / inhibition at 5 µg/mL / inhibition at 25 µg/mL: read-out: % Inhibition; for inhibition at 5 µg/mL: 5.0 μg/ml; for inhibition at 25 µg/mL: 25.0 μg/ml
Procedure: (§1) Compounds were tested for it vitro growth inhibitory activity against Toxoplasma gondii replication in L929 (L929-ATCC CCL 1, mouse connective tissue) or HFF (human foreskin fibroblast) host cells using the [^3 H]-uracil incorporation technique as follows. Host cells were grown in 96-well flat-bottom microtiter plates at 37° C in a 5% carbon dioxide environment in modified Eagle's medium containing penicillin, streptomycin and 10% fetal equine serum. Wells containing a homogeneous confluent monolayer of host cells were infected with T. gondii tachyzoites at a ratio of 3 parasites per cell (approximately 6×10^4 tachyzoites per well containing 100 μl of medium). […] Two hours post infection, the cultures were washed to remove free parasites and the various dilutions of test compound were added. Cells were subsequently collected at 24, 48 and 72 hours. Four hours prior to each harvesting 50 Al of [^3 H]-uracil (1 μCi) was added. Cells were collected using a cell harvester and incorporated radioactivity was measured using a scintillation counter. […]

[2] = test system: Toxoplasma gondii; experiment: growth inhibition of T. gondii in HFF host cells ([3H]-uracil incorporation); type: cell-based; conditions: Toxoplasma gondii; for inhibition at 0.5 µg/mL: 0.5 μg/ml; for inhibition at 0.05 µg/mL: 0.05 μg/ml; for inhibition at 25 µg/mL: 25.0 μg/ml
Procedure: as §1

[3] = cytotoxicity towards L929 host cells (Cell Titer 96); conditions: mouse, % Inhibition of host cell growth (values in parenthesis)
Procedure: (§2) Cytotoxicity of the test compounds towards host cells was determined using the Cell Titer 96™ it (Promega Corporation, Madison, Wis.) as follows. Cells were seeded at a concentration of 5×10^3 cells per well containing 100 μl of medium in 96-well flat-bottom microtiter plates and incubated at 37° C. in a 5% carbon dioxide environment for 4 hours. Dilutions of the test compounds prepared as described above were then added, and incubation continued for 24, 48 or 72 hours. Four hours before each of these time points the growth medium containing test compound was replaced with 100 μl of fresh medium followed by addition of 16 μl of the kit dye solution. After incubation at 37° C. for another 4 hours, 100 μl of the kit solubilization/stop solution was added to each well, the contents of the wells were mixed and the plates kept 1 hour at room temperature. The plates were then read spectrophotometrically in a plate reader at a wavelength of 570 nm. […] Atovaquone was included in the test as a standard.

[4] = cytotoxicity towards HFF host cells (Cell Titer 96); conditions: human, % Inhibition of host cell growth (values in parenthesis)
Procedure: as §2

[5] = test system: Cryptosporidium parvum; experiment: growth inhibitory activity against C. parvum in host MDBKF5D2 cells (immunofluorescence); type: cell-based; conditions: Cryptosporidium parvum, 48 h
Procedure: (§3) Compounds were tested for in vitro growth inhibitory activity against C. parvum grown in host MDBKF5D2 cells and for toxicity towards the host cells as follows. […] To test for toxicity towards the host cells, the media containing test compound (200 μl) were introduced into two wells of a 96 well microtiter plate containing confluent MDBKF5D2 cell monolayers and two wells without monolayers, and incubated at 37° C. in an 8% carbon dioxide environment. After 48 hours, the tetrazolium salt MTS (Owen's solution) and phenazine methosulfate were added to each well at concentrations of 333 μg/ml and 25 μM, respectively. The plate was returned to the incubator in the dark to develop for 2 hours, then 100 μl of each supernatant was transferred to a new microtiter plate and read spectrophotometrically in a plate reader at a wavelength of 490 nm. Percent toxicity was calculated by subtracting the mean optical density (OD) of the drug supernatants from the OD of medium control supernatants (no drug), dividing by the OD of the medium control, and multiplying by 100. To test for growth inhibitory activity against C. parvum, 3×10^4 oocysts per well were incubated in mentioned concentrations of each drug at 37° C. (8% CO2) on confluent MDBKF5D2 cell monolayers in 96 well microtiter plates. After 48 hours, the level of infection in each well was determined by means of an immunofluorescence assay. Percent inhibition of growth was calculated by subtracting the mean parasite count in the wells containing test compound from the mean parasite count in the medium control wells (no test compound), dividing by the mean parasite count in the medium control wells, and multiplying by 100. Paromomycin was included in the test as a standard.

[6] = toxicity towards MDBKF5D2 host cells (MTS); conditions: bovine, mdbkf5d2 cells, Cytotoxicity (percent toxicity)
Procedure: as §3

[7] = 24 h, HFF host cells, 24 hours, read-out: % Inhibition
[8] = 24 h, HFF host cells, 5.0 μg/ml, 24 hours, read-out: % Inhibition
[9] = 48 h, HFF host cells, 48 hours, read-out: % Inhibition
[10] = 48 h, HFF host cells, 5.0 μg/ml, 48 hours, read-out: % Inhibition
[11] = 72 h, HFF host cells, 72 hours, read-out: % Inhibition
[12] = 72 h, HFF host cells, 5.0 μg/ml, 72 hours, read-out: % Inhibition

Compound | inhibition at 0.5 µg/mL ([1]; L929, 24 h, 24 hours) [%] | inhibition at 5 µg/mL ([1]; L929, 24 h, 24 hours) [%] | inhibition at 0.5 µg/mL ([1]; L929, 48 h, 48 hours) [%] | inhibition at 5 µg/mL ([1]; L929, 48 h, 48 hours) [%] | inhibition at 0.5 µg/mL ([1]; L929, 72 h, 72 hours) [%] | inhibition at 5 µg/mL ([1]; L929, 72 h, 72 hours) [%] | inhibition at 0.5 µg/mL [2, 7] [%] | inhibition at 5 µg/mL [2, 8] [%] | inhibition at 0.5 µg/mL [2, 9] [%] | inhibition at 5 µg/mL [2, 10] [%] | inhibition at 0.5 µg/mL [2, 11] [%] | inhibition at 5 µg/mL [2, 12] [%] | inhibition at 24 h ([3]; L929, 0.5 μg/ml) [%] | inhibition at 48 h ([3]; L929, 0.5 μg/ml) [%] | inhibition at 24 h ([3]; L929, 5.0 μg/ml) [%] | inhibition at 48 h ([3]; L929, 5.0 μg/ml) [%] | inhibition at 72 h ([3]; L929, 5.0 μg/ml) [%] | inhibition at 24 h ([4]; 5.0 μg/ml) [%] | inhibition at 48 h ([4]; 5.0 μg/ml) [%] | inhibition at 72 h ([4]; 5.0 μg/ml) [%] | further results
O=C1C(O)=C([C@H]2CC[C@H](c3ccc(Cl)cc3)CC2)C(=O)c2ccccc21 [Atovaquone, reference compound] | 85.2 | 80.3 | 99 | 100 | 98.4 | 97.8 | 98.3 | 95.5 | 77.8 | 99.8 | 99.8 | 100 | 14.3 | 15 | 20 | 54.1 | 78.1 | 6.2 | 31.1 | 28.1 | inhibition at 0.05 µg/mL ([1]; L929, 24 h, 24 hours): 80.9%; inhibition at 0.05 µg/mL ([1]; L929, 48 h, 48 hours): 0%; inhibition at 0.05 µg/mL ([1]; L929, 72 h, 72 hours): 0%; inhibition at 0.05 µg/mL ([2]; 48 h, HFF host cells): 50.5%; inhibition at 0.05 µg/mL ([2]; 72 h, HFF host cells): 89.4%; inhibition at 24 h ([3]; L929, 0.05 μg/ml): 0%; inhibition at 48 h ([3]; L929, 0.05 μg/ml): 0%; inhibition at 72 h ([3]; L929, 0.05 μg/ml): 0.2%; inhibition at 72 h ([3]; L929, 0.5 μg/ml): 44.4%; inhibition at 24 h ([4]; 0.05 μg/ml): 0%; inhibition at 48 h ([4]; 0.05 μg/ml): 0%; inhibition at 72 h ([4]; 0.05 μg/ml): 0%; inhibition at 24 h ([4]; 0.5 μg/ml): 0%; inhibition at 48 h ([4]; 0.5 μg/ml): 9.6%; inhibition at 72 h ([4]; 0.5 μg/ml): 1.4%
CCC(C)(NC(=O)c1cc(F)c(F)c(F)c1)C(=O)CCl (stereo not shown) [Compound 11] | – | 21.5 | – | 80.1 | – | 95.4 | – | 73.4 | – | 98.4 | – | 97.7 | – | – | 0 | 5.5 | 36.9 | 2.1 | 6.1 | 0 | inhibition at 25 µg/mL ([1]; L929, 24 h, 24 hours): 25.6%; inhibition at 25 µg/mL ([1]; L929, 48 h, 48 hours): 66.1%; inhibition at 25 µg/mL ([1]; L929, 72 h, 72 hours): 73.6%; inhibition at 25 µg/mL [2, 7]: 91.9%; inhibition at 25 µg/mL [2, 9]: 98.8%; inhibition at 25 µg/mL [2, 11]: 97.7%; inhibition at 24 h ([3]; L929, 25.0 μg/ml): 22.6%; inhibition at 48 h ([3]; L929, 25.0 μg/ml): 60.1%; inhibition at 72 h ([3]; L929, 25.0 μg/ml): 89.6%; inhibition at 24 h ([4]; 25.0 μg/ml): 17.5%; inhibition at 48 h ([4]; 25.0 μg/ml): 20%; inhibition at 72 h ([4]; 25.0 μg/ml): 50.1%; inhibition at 0.1 µM [5]: 5.6%; inhibition at 1 µM [5]: 18.1%; inhibition at 10 µM [5]: 23.9%; inhibition at 100 µM [5]: 86.2%; cytotoxicity at 48 h, 0.1 µM [6]: 0%; cytotoxicity at 48 h, 1 µM [6]: 0%; cytotoxicity at 48 h, 10 µM [6]: 0%; cytotoxicity at 48 h, 100 µM [6]: 2.7%
CCC(C)(NC(=O)c1cc(F)cc(F)c1)C(=O)CCl (stereo not shown) [Compound 12] | 42 | 2.8 | 77.6 | 55 | 59 | 86.2 | 53.4 | 84.4 | 95.3 | – | 91.6 | 99.8 | 8 | 0 | 18.9 | 66.8 | 88 | 7.7 | 29.1 | 41.3 | inhibition at 5 µg/mL ([2]; 48 h): 97.3%; inhibition at 72 h ([3]; L929, 0.5 μg/ml): 0%; inhibition at 24 h ([4]; 0.5 μg/ml): 4.6%; inhibition at 48 h ([4]; 0.5 μg/ml): 5.4%; inhibition at 72 h ([4]; 0.5 μg/ml): 0%; inhibition at 0.1 µM [5]: 9.4%; inhibition at 1 µM [5]: 7.2%; inhibition at 10 µM [5]: 21.3%; inhibition at 100 µM [5]: 88.9%; cytotoxicity at 48 h, 0.1 µM [6]: 11.2%; cytotoxicity at 48 h, 1 µM [6]: 2.5%; cytotoxicity at 48 h, 10 µM [6]: 9.9%; cytotoxicity at 48 h, 100 µM [6]: 9.9%
NC[C@@H]1O[C@H](O[C@H]2[C@@H](O)[C@H](O[C@@H]3[C@@H](O)[C@H](N)C[C@H](N)[C@H]3O[C@H]3O[C@H](CO)[C@@H](O)[C@H](O)[C@H]3N)O[C@@H]2CO)[C@H](N)[C@@H](O)[C@@H]1O [Paromomycin, reference compound] | – | – | – | – | – | – | – | – | – | – | – | – | – | – | – | – | – | – | – | – | inhibition at 2000 µg/mL [5]: 77.8%

— patent US6107316A, “Method for treating protozoal infections” (priority 1998, dated 2000)
